This is an account of results in patent publication EP4800015A1, “AZABICYCLO DERIVATIVE AND PREPARATION METHOD THEREFOR, AND USE” (Zhejiang Hisun Pharmaceutical Co., Ltd., priority 2023, dated 2025).

The structures appear in SMILES notation. pIC50: −log10 of the molar value.

T1 sequence (Q14191 whole entry): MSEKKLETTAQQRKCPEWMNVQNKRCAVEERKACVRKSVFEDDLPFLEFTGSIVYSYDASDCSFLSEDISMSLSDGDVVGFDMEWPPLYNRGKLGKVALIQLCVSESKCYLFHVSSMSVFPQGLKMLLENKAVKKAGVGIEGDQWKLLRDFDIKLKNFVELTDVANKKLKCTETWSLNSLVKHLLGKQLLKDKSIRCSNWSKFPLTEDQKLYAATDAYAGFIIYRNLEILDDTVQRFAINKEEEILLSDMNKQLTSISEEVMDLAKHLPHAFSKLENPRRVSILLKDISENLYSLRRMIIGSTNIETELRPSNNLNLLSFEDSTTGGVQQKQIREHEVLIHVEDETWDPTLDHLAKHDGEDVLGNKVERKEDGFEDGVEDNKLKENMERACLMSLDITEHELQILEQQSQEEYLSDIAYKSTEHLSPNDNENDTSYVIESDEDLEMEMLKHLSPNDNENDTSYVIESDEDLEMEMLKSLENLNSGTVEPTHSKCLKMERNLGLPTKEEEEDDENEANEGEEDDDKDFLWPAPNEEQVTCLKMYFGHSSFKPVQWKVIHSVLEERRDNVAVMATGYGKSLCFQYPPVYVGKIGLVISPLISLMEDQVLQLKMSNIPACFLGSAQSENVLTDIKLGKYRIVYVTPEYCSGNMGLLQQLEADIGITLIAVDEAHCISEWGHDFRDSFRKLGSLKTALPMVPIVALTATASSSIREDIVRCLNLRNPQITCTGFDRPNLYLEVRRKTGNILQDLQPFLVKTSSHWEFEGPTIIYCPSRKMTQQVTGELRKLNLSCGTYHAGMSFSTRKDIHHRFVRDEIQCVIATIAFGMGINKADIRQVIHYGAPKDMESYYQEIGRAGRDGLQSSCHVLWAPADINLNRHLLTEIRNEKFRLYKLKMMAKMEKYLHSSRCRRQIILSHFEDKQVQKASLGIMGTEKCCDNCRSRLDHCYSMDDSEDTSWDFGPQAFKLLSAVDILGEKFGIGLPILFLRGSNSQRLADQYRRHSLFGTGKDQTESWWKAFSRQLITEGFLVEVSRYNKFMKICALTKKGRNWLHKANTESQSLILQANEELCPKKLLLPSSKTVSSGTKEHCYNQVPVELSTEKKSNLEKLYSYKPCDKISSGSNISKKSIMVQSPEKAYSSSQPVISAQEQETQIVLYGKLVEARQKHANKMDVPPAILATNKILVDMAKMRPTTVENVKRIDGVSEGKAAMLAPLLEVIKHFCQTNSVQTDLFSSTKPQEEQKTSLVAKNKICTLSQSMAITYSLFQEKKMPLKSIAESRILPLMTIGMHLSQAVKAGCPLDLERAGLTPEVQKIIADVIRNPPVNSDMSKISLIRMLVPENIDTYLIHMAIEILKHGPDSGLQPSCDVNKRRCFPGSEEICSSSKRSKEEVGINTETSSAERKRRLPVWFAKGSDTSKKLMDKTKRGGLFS

The first assay concerns the target T1, recombinant human WRN (Homo sapiens, UniProt Q14191).
T1 construct: purchased BPS 101264
Nature of the assay: Inhibition of WRN enzyme activity (ATPase), ADP-Glo Kinase Assay. The assay is classed as biochemical. Conditions: WRN protein 5 nM, Flap 0.1 nM, ATP 30 µM. A digest of the protocol: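 Recombinant human WRN (5 nM) was preincubated with compound (1000–0.004 nM) for 15 min at room temperature. Flap26 5'-flap DNA (0.1 nM) and 30 µM ATP were then added for 10 min in Tris pH 7.5, MgCl2, NaCl, BSA, Pluronic buffer. ADP was detected by ADP-Glo luminescence, and IC50 was obtained by nonlinear regression versus a 0.1% DMSO control.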
In the case of `CCc1c(N2CCN(C(=O)c3ncnc(C)c3O)CC2)c(=O)n2nc(-c3ccc4nc[nH]c4c3)nc2n1CC(=O)Nc1ccc(C(F)(F)F)cc1Cl` [Example 138, 2-(2-(1H-benzo[d]imidazol-6-yl)-5-ethyl-6-(4-(5-hydroxy-6-methylpyrimidine-4-carbonyl)piperazin-1-yl)-7-oxo-[1,2,4]triazolo[1,5-a]pyrimidin-4(7H)-yl)-N-(2-chloro-4-(trifluoromethyl)phenyl) acetamide], the pIC50 was 7.00 to 9.00.

Take `CCc1c(N2CCN(C(=O)c3ncnc(C)c3O)CC2)c(=O)n2nc(-c3ccc4cnn(C)c4c3)nc2n1CC(=O)Nc1ccc(C(F)(F)F)cc1Cl` [Example 139, N-(2-chloro-4-(trifluoromethyl)phenyl)-2-(5-ethyl-6-(4-(5-hydroxy-6-methylpyrimidine-4-carbonyl)piperazin-1-yl)-2-(1-methyl-1H-indazol-6-yl)-7-oxo-[1,2,4]triazolo[1,5-a]pyrimidin-4(7H)-yl) acetamide]: the pIC50 is 7.00 to 9.00.

The assay is the same for the next values; noted with them: WRN protein 5 nM, Flap 0.1 nM, ATP 30 µM; read-out: IC50.
In the case of `CCc1c(N2CCN(C(=O)c3ncnc(C)c3O)CC2)c(=O)n2nc(-c3ccc4scnc4c3)nc2n1CC(=O)Nc1ccc(C(F)(F)F)cc1Cl` [Example 100, 2-(2-(benzo[d]thiazol-5-yl)-5-ethyl-6-(4-(5-hydroxy-6-methylpyrimidine-4-carbonyl)piperazin-1-yl)-7-oxo-[1,2,4]triazolo[1,5-a]pyrimidin-4(7H)-yl)-N-(2-chloro-4-(trifluoromethyl)phenyl)acetamide], the pIC50 is 7.00 to 9.00.

As to `CCc1c(N2CCCN(C(=O)c3ncnc(C)c3O)CC2)c(=O)n2nc(-c3ccc4c(c3)CCO4)nc2n1CC(=O)Nc1ccc(C(F)(F)F)cc1Cl` [Example 107, N-(2-chloro-4-(trifluoromethyl)phenyl)-2-(2-(2,3-dihydrobenzofuran-5-yl)-5-ethyl-6-(4-(5-hydroxy-6-methylpyrimidine-4-carbonyl)-1,4-diazepan-1-yl)-7-oxo-[1,2,4]triazolo[1,5-a]pyrimidin-4(7 H)-yl)acetamide], the pIC50 was 7.00 to 9.00.

As to `CCc1c(N2CCC(NC(=O)c3ncnc(C)c3O)CC2)c(=O)n2nc(-c3ccc4c(c3)CCO4)nc2n1CC(=O)Nc1ccc(C(F)(F)F)cc1Cl` [Example 108, N-(1-(4-(2-((2-chloro-4-(trifluoromethyl)phenyl)amino)-2-oxoethyl)-2-(2,3-dihydrobenzofuran-5-yl)-5-ethyl-7-oxo-4,7-dihydro-[1,2,4]triazolo[1,5-a]pyrimidin-6-yl)piperidin-4-yl)-5-hydroxy-6-methylpyrimidine-4-carboxamide], the pIC50 is 7.00 to 9.00.

In the case of `CCc1c(N2CCN(C(=O)c3ncnc(C)c3O)CC2)c(=O)n2nc(-c3ccc4sc(C)nc4c3)nc2n1CC(=O)Nc1ccc(C(F)(F)F)cc1Cl` [Example 110, N-(2-chloro-4-(trifluoromethyl)phenyl)-2-(5-ethyl-6-(4-(5-hydroxy-6-methylpyrimidine-4-carbonyl)piperazin-1-yl)-2-(2-methylbenzo[d]thiazol-5-yl)-7-oxo-[1,2,4]triazolo[1,5-a]pyrimidin-4(7H)-yl)acetamide], the pIC50 was 7.00 to 9.00.

For `CCc1c(N2CCN(C(=O)c3ncnc(C)c3O)CC2)c(=O)n2nc(-c3ccc4c(c3)ncn4C)nc2n1CC(=O)Nc1ccc(C(F)(F)F)cc1Cl` [Example 111, N-(2-chloro-4-(trifluoromethyl)phenyl)-2-(5-ethyl-6-(4-(5-hydroxy-6-methylpyrimidine-4-carbonyl)piperazin-1-yl)-2-(1-methyl-1H-benzo[d]imidazol-5-yl)-7-oxo-[1,2,4]triazolo[1,5-a]pyrimidin-4(7H)-yl)acetamide], the pIC50 was 7.00 to 9.00.

With `CCc1c(N2CCN(C(=O)c3ncnc(C)c3O)CC2)c(=O)n2nc(-c3cnc4[nH]ncc4c3)nc2n1CC(=O)Nc1ccc(C(F)(F)F)cc1Cl` [Example 114, N-(2-chloro-4-(trifluoromethyl)phenyl)-2-(5-ethyl-6-(4-(5-hydroxy-6-methylpyrimidine-4-carbonyl)piperazin-1-yl)-7-oxo-2-(1H-pyrazolo[3,4-b]pyridin-5-yl)-[1,2,4]triazolo[1,5-a]pyrimidin-4(7 H)-yl)acetamide], the pIC50 is 7.00 to 9.00.

`CCc1c(N2CCN(C(=O)c3ncnc(C)c3O)CC2)c(=O)n2nc(C=C3CC(C(N)=O)C3)nc2n1CC(=O)Nc1ccc(C(F)(F)F)cc1Cl` (stereo not shown) [Example 116, 3-((4-(2-((2-chloro-4-(trifluoromethyl)phenyl)amino)-2-oxoethyl)-5-ethyl-6-(4-(5-hydroxy-6-methylpyrimidine-4-carbonyl)piperazin-1-yl)-7-oxo-4,7-dihydro-[1,2,4]triazolo[1,5-a]pyrimidin-2-yl)methylene)cyclobutane-1-carboxamide]: the pIC50 was 7.00 to 9.00.

On to `CCc1c(N2CCN(C(=O)c3ncnc(C)c3O)CC2)c(=O)n2nc(C=C3CCCC3)nc2n1CC(=O)Nc1ccc(C(F)(F)F)cc1Cl` [Example 117, N-(2-chloro-4-(trifluoromethyl)phenyl)-2-(2-(cyclopentylidenemethyl)-5-ethyl-6-(4-(5-hydroxy-6-methylpyrimidine-4-carbonyl)piperazin-1-yl)-7-oxo-[1,2,4]triazolo[1,5-a]pyrimidin-4(7H)-yl)a cetamide], for which the negative logarithm of the IC50 (pIC50) is 7.00 to 9.00.

Regarding `CCc1c(N2CCN(C(=O)c3ncnc(C)c3O)CC2)c(=O)n2nc(C3=CC4(C3)CC(C(N)=O)C4)nc2n1CC(=O)Nc1ccc(C(F)(F)F)cc1Cl` (stereo not shown) [Example 119, 6-(4-(2-((2-chloro-4-(trifluoromethyl)phenyl)amino)-2-oxoethyl)-5-ethyl-6-(4-(5-hydroxy-6-methylpyrimidine-4-carbonyl)piperazin-1-yl)-7-oxo-4,7-dihydro-[1,2,4]triazolo[1,5-a]pyrimidin-2-yl)spiro[3.3]hept-5-ene-2-carboxamide], the pIC50 is 7.00 to 9.00.

Take `CCc1c(N2CCN(C(=O)c3ncnc(C)c3O)CC2)c(=O)n2nc(C3=CC4C/C(=N/OC)CC4C3)nc2n1CC(=O)Nc1ccc(C(F)(F)F)cc1Cl` (stereo not shown) [Example 122, (E)-N-(2-chloro-4-(trifluoromethyl)phenyl)-2-(5-ethyl-6-(4-(5-hydroxy-6-methylpyrimidine-4-carbonyl)piperazin-1-yl)-2-(5-(methoxyimino)-1,3a,4,5,6,6a-hexahydropentalen-2-yl)-7-oxo-[1,2,4]triazolo[1,5-a]pyrimidin-4(7H)-yl)acetamide]: the pIC50 was 7.00 to 9.00.

Consider `CCc1c(N2CCN(C(=O)c3ncnc(C)c3O)CC2)c(=O)n2nc(-c3cccc4occc34)nc2n1CC(=O)Nc1ccc(C(F)(F)F)cc1Cl` [Example 124, 2-(2-(benzofuran-4-yl)-5-ethyl-6-(4-(5-hydroxy-6-methylpyrimidine-4-carbonyl)piperazin-1-yl)-7-oxo-[1,2,4]triazolo[1,5-a]pyrimidin-4(7H)-yl)-N-(2-chloro-4-(trifluoromethyl)phenyl)acetamide], for which the pIC50 was 7.00 to 9.00.

In the case of `CCc1c(N2CCN(C(=O)c3ncnc(C)c3O)CC2)c(=O)n2nc(-c3ccc4c(c3)C(=O)NC4)nc2n1CC(=O)Nc1ccc(C(F)(F)F)cc1Cl` [Example 127, N-(2-chloro-4-(trifluoromethyl)phenyl)-2-(5-ethyl-6-(4-(5-hydroxy-6-methylpyrimidine-4-carbonyl)piperazin-1-yl)-7-oxo-2-(3-oxoisoindolin-5-yl)-[1,2,4]triazolo[1,5-a]pyrimidin-4(7H)-yl)acetamide], the negative logarithm of the IC50 (pIC50) was 7.00 to 9.00.

`CCc1c(N2CCN(C(=O)c3ncnc(C)c3O)CC2)c(=O)n2nc(-c3ccc4ccn(C)c4c3)nc2n1CC(=O)Nc1ccc(C(F)(F)F)cc1Cl` [Example 128, N-(2-chloro-4-(trifluoromethyl)phenyl)-2-(5-ethyl-6-(4-(5-hydroxy-6-methylpyrimidine-4-carbonyl)piperazin-1-yl)-2-(1-methyl-1H-indol-6-yl)-7-oxo-[1,2,4]triazolo[1,5-a]pyrimidin-4(7H)-yl)ac etamide]: the pIC50 was 7.00 to 9.00.

As to `CCc1c(N2CCN(C(=O)c3ncnc(C)c3O)CC2)c(=O)n2nc(-c3cc4cccnc4s3)nc2n1CC(=O)Nc1ccc(C(F)(F)F)cc1Cl` [Example 131, N-(2-chloro-4-(trifluoromethyl)phenyl)-2-(5-ethyl-6-(4-(5-hydroxy-6-methylpyrimidine-4-carbonyl)piperazin-1-yl)-7-oxo-2-(thieno[2,3-b]pyridin-2-yl)-[1,2,4]triazolo[1,5-a]pyrimidin-4(7H)-yl)a cetamide], the pIC50 was 7.00 to 9.00.

With `CCc1c(N2CCN(C(=O)c3ncnc(C)c3O)CC2)c(=O)n2nc(-c3ccc4ncnn4c3)nc2n1CC(=O)Nc1ccc(C(F)(F)F)cc1Cl` [Example 135, 2-(2-([1,2,4]triazolo[1,5-a]pyridin-6-yl)-5-ethyl-6-(4-(5-hydroxy-6-methylpyrimidine-4-carbonyl)piperazin-1-yl)-7-oxo-[1,2,4]triazolo[1,5-a]pyrimidin-4(7H)-yl)-N-(2-chloro-4-(trifluoromethyl)phenyl)acetamide], the pIC50 was 7.00 to 9.00.

For the molecule `CCc1c(N2CCN(C(=O)c3ncnc(C)c3O)CC2)c(=O)n2nc(-c3ccn4ccnc4c3)nc2n1CC(=O)Nc1ccc(C(F)(F)F)cc1Cl` [Example 136, N-(2-chloro-4-(trifluoromethyl)phenyl)-2-(5-ethyl-6-(4-(5-hydroxy-6-methylpyrimidine-4-carbonyl)piperazin-1-yl)-2-(imidazo[1,2-a]pyridin-7-yl)-7-oxo-[1,2,4]triazolo[1,5-a]pyrimidin-4(7H)-yl)acetamide], the pIC50 was 7.00 to 9.00.

For `CCc1c(N2CCN(C(=O)c3ncnc(C)c3O)CC2)c(=O)n2nc(-c3ccn4ncnc4c3)nc2n1CC(=O)Nc1ccc(C(F)(F)F)cc1Cl` [Example 137, 2-(2-([1,2,4]triazolo[1,5-a]pyridin-7-yl)-5-ethyl-6-(4-(5-hydroxy-6-methylpyrimidine-4-carbonyl)piperazin-1-yl)-7-oxo-[1,2,4]triazolo[1,5-a]pyrimidin-4(7H)-yl)-N-(2-chloro-4-(trifluoromethyl)phenyl)acetamide], the pIC50 is 7.00 to 9.00.

For orientation: pIC50 means the negative decadic logarithm of the IC50, by convention in mol/L.
